PubChem BioAssay (NCI)
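48-hour exposure; five concentrations; linearly interpolated endpoints. TGI marks complete inhibition of growth.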

Tests used:
Assay in all cases: NCI tumour cell line growth inhibition, 48 h
[1] = system: MDA-MB-231 breast
[2] = system: SNB-19 CNS
[3] = system: DU-145 prostate
[4] = system: K-562 leukemia
[5] = system: 786-0 renal
[6] = system: MOLT-4 leukemia
[7] = system: HL-60(TB) leukemia
[8] = system: SW-620 colon
[9] = system: HCT-116 colon
[10] = system: SK-MEL-2 melanoma
[11] = system: KM12 colon
[12] = system: HOP-92 NSCLC
[13] = system: EKVX NSCLC
[14] = system: NCI/ADR-RES ovarian
[15] = system: SR leukemia
[16] = system: MDA-MB-435
[17] = system: SK-MEL-5 melanoma
[18] = system: SK-MEL-28 melanoma
[19] = system: ACHN renal
[20] = system: CCRF-CEM leukemia
[21] = system: SNB-75 CNS
[22] = system: TK-10 renal
[23] = system: HS 578T breast
[24] = system: SN12C renal
[25] = system: T-47D breast
[26] = system: OVCAR-5 ovarian
[27] = system: BT-549 breast
[28] = system: SF-539 CNS
[29] = system: HT29 colon
[30] = system: HCC-2998 colon
[31] = system: MALME-3M melanoma
[32] = system: UO-31 renal
[33] = system: NCI-H226 lung
[34] = system: MDA-N
[35] = system: MCF7 breast
[36] = system: HCT-15 colon
[37] = system: LOX IMVI melanoma
[38] = system: SF-268 CNS
[39] = system: M14 melanoma
[40] = system: UACC-257 melanoma
[41] = system: NCI-H23 lung
[42] = system: OVCAR-8 ovarian
[43] = system: PC-3 prostate
[44] = system: COLO 205 colon
[45] = system: OVCAR-4 ovarian
[46] = system: A498 renal
[47] = system: CAKI-1 renal
[48] = system: U251 CNS
[49] = system: NCI-H460 lung
[50] = system: IGROV1 ovarian
[51] = system: SF-295 CNS
[52] = system: UACC-62 melanoma
[53] = system: SK-OV-3 ovarian
[54] = system: A549 NSCLC
[55] = system: NCI-H522 lung
[56] = system: HOP-62 NSCLC
[57] = system: RPMI-8226 leukemia
[58] = system: OVCAR-3 ovarian
[59] = system: RXF 393 renal

COc1ccc2cc1Oc1ccc(cc1)CC1c3cc(OC)c(cc3CCN1C)Oc1c(OC)c(OC)cc3c1C(C2)N(C)CC3 (centres undefined)
TGI [1]: 21.5 µM
TGI [2]: 27.1 µM
TGI [3]: 27.9 µM
TGI [4]: 28.7 µM
TGI [5]: 30.4 µM
TGI [6]: 32.4 µM
TGI [7]: 16.3 µM
TGI [8]: > 75 µM
TGI [9]: > 75 µM
TGI [10]: 25.6 µM
TGI [11]: 26 µM
TGI [12]: 34.1 µM
TGI [13]: 31.7 µM
TGI [14]: 29.9 µM
TGI [15]: 4.33 µM
TGI [16]: 26.2 µM
TGI [17]: 15.9 µM
TGI [18]: 34.9 µM
TGI [19]: 19 µM
TGI [20]: 42.4 µM
TGI [21]: 18.2 µM
TGI [22]: 20.6 µM
TGI [23]: 25.6 µM
TGI [24]: 18.3 µM
TGI [25]: 20.5 µM
TGI [26]: > 75 µM
TGI [27]: 20.9 µM
TGI [28]: 19.5 µM
TGI [29]: 18 µM
TGI [30]: 19.1 µM
TGI [31]: 23.1 µM
TGI [32]: 18.8 µM
TGI [33]: 51.7 µM
TGI [34]: 20.3 µM
TGI [35]: 36.7 µM
TGI [36]: 18.3 µM
TGI [37]: 28 µM
TGI [38]: 33.6 µM
TGI [39]: 15 µM
TGI [40]: 16.1 µM
TGI [41]: 35.6 µM
TGI [42]: 23.2 µM
TGI [43]: 40.7 µM
TGI [44]: 11.8 µM
TGI [45]: 24.4 µM
TGI [46]: 23.9 µM
TGI [47]: 29.4 µM
TGI [48]: 24.6 µM
TGI [49]: 19.8 µM
TGI [50]: 64.2 µM
TGI [51]: 21.1 µM
TGI [52]: 23.3 µM
TGI [53]: > 75 µM
TGI [54]: 53.4 µM
TGI [55]: 20.6 µM

C=C(C)c1nc(C#N)c(N)o1
TGI [1]: > 100 µM
TGI [56]: > 100 µM
TGI [2]: > 100 µM
TGI [3]: > 100 µM
TGI [4]: > 100 µM
TGI [5]: > 100 µM
TGI [6]: > 100 µM
TGI [8]: > 100 µM
TGI [9]: > 100 µM
TGI [10]: > 100 µM
TGI [11]: > 100 µM
TGI [13]: > 100 µM
TGI [14]: > 100 µM
TGI [15]: > 100 µM
TGI [16]: > 100 µM
TGI [17]: > 100 µM
TGI [18]: > 100 µM
TGI [19]: > 100 µM
TGI [20]: > 100 µM
TGI [57]: > 100 µM
TGI [22]: > 100 µM
TGI [23]: > 100 µM
TGI [24]: > 100 µM
TGI [25]: > 100 µM
TGI [26]: > 100 µM
TGI [27]: > 100 µM
TGI [28]: > 100 µM
TGI [29]: > 100 µM
TGI [30]: > 100 µM
TGI [31]: > 100 µM
TGI [32]: > 100 µM
TGI [33]: > 100 µM
TGI [34]: > 100 µM
TGI [35]: > 100 µM
TGI [36]: > 100 µM
TGI [37]: > 100 µM
TGI [38]: > 100 µM
TGI [39]: > 100 µM
TGI [40]: > 100 µM
TGI [41]: > 100 µM
TGI [42]: > 100 µM
TGI [43]: > 100 µM
TGI [44]: > 100 µM
TGI [45]: > 100 µM
TGI [47]: > 100 µM
TGI [58]: > 100 µM
TGI [48]: > 100 µM
TGI [49]: > 100 µM
TGI [50]: > 100 µM
TGI [59]: > 100 µM
TGI [51]: > 100 µM
TGI [53]: > 100 µM
TGI [54]: > 100 µM

COc1cc2nc3c(=C(C#N)C#N)c4ccccc4n3c(=O)c2cc1OC
TGI [1]: > 100 µM
TGI [56]: > 100 µM
TGI [2]: > 100 µM
TGI [3]: > 100 µM
TGI [4]: > 100 µM
TGI [5]: > 100 µM
TGI [6]: > 100 µM
TGI [8]: > 100 µM
TGI [9]: > 100 µM
TGI [10]: > 100 µM
TGI [11]: > 100 µM
TGI [12]: > 100 µM
TGI [13]: > 100 µM
TGI [14]: > 100 µM
TGI [15]: > 100 µM
TGI [16]: > 100 µM
TGI [17]: > 100 µM
TGI [19]: > 100 µM
TGI [20]: > 100 µM
TGI [57]: > 100 µM
TGI [21]: > 100 µM
TGI [22]: > 100 µM
TGI [23]: > 100 µM
TGI [24]: > 100 µM
TGI [25]: > 100 µM
TGI [26]: > 100 µM
TGI [27]: > 100 µM
TGI [28]: > 100 µM
TGI [29]: > 100 µM
TGI [30]: > 100 µM
TGI [32]: > 100 µM
TGI [33]: > 100 µM
TGI [34]: > 100 µM
TGI [35]: > 100 µM
TGI [36]: > 100 µM
TGI [37]: > 100 µM
TGI [38]: > 100 µM
TGI [39]: > 100 µM
TGI [40]: > 100 µM
TGI [41]: > 100 µM
TGI [42]: > 100 µM
TGI [43]: > 100 µM
TGI [44]: > 100 µM
TGI [45]: > 100 µM
TGI [46]: > 100 µM
TGI [47]: > 100 µM
TGI [58]: > 100 µM
TGI [48]: > 100 µM
TGI [49]: > 100 µM
TGI [50]: > 100 µM
TGI [59]: > 100 µM
TGI [51]: > 100 µM
TGI [52]: > 100 µM
TGI [53]: > 100 µM
TGI [54]: > 100 µM
TGI [55]: > 100 µM
